Experimental data taken from article PMC7271538 (Frontiers in Microbiology, 2020).
Structures can show the parent of a compound that is named as a salt. Where two headings read alike, the source gives them in different places.

Target: T1, prolyl oligopeptidase (rPOPLi) (Leishmania infantum, UniProt A4ICB5)
T1 construct: gene LINJ_36_7060; full-length, recombinant from E. coli (pET-15b)
Experiment: fluorogenic assay, single concentration […]
Type: biochemical

T1 sequence (A4ICB5 entry or part of it): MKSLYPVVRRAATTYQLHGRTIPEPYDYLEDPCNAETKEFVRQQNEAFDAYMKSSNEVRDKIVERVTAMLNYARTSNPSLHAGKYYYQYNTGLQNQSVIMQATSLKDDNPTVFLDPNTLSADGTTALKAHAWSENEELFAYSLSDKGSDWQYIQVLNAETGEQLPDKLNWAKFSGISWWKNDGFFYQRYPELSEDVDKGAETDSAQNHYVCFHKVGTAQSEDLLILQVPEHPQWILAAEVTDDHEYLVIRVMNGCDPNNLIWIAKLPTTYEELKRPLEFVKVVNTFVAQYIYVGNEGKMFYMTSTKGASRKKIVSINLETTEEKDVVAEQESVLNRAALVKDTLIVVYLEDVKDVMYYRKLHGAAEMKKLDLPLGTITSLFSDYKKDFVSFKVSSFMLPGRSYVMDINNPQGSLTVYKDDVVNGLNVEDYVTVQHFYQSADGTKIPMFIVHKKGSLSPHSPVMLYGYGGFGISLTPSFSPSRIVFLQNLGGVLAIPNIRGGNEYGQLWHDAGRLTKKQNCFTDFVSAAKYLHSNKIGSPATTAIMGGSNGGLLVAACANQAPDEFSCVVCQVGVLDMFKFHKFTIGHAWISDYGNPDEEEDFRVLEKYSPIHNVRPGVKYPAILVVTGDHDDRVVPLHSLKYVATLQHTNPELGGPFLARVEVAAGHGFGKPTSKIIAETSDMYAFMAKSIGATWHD

Row | Compound | inhibition at 100 µM (read-out: Inhibition (%)) [%] | inhibition at 100 µM [%]
1 | Cc1ccc(S(=O)(=O)N[C@@H](Cc2ccccc2)C(=O)CCl)cc1 [TPCK, N-p-Tosyl-L-phenylalanine chloromethyl ketone] | 92.3 | –
2 | Cc1ccc(S(=O)(=O)N[C@@H](CCCCN)C(=O)CCl)cc1 [TLCK, N-α-Tosyl-L-lysine chloromethyl ketone hydrochloride] | – | 96.8
